Assays:
[1] = molecular target: Voltage-gated inwardly rectifying potassium channel KCNH2 (Homo sapiens, UniProt Q12809); experiment: Inhibition of human ERG channel overexpressed in Chinese hamster CHOK1 cells by whole cell voltage clamp assay; assay type: cell-based, CHO-K1
[2] = Half life in human; assay type: ADME, organism-based; conditions: in vivo
[3] = molecular target: T1, Dihydroorotate dehydrogenase (Plasmodium falciparum, UniProt Q54A96); experiment: Inhibition of plasmodium falciparum DHODH assessed as inhibition of [14C]bicarbonate incorporation into pyrimidine nucleotide by HPLC analysis
T1 sequence (Q54A96 whole entry): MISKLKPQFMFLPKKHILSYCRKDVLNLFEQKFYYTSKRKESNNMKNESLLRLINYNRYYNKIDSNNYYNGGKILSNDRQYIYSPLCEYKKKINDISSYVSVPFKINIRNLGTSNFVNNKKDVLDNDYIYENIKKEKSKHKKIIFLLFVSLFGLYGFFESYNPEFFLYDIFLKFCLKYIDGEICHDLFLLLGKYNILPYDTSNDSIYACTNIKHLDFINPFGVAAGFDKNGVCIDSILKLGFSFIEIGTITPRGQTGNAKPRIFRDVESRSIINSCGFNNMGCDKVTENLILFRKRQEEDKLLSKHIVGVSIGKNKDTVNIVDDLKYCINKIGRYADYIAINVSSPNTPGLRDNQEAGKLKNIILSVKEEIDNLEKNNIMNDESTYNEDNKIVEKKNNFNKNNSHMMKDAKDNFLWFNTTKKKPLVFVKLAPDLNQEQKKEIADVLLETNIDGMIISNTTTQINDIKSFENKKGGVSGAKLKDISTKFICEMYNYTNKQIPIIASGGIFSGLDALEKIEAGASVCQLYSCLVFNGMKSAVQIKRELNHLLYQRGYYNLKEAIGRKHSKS

[4] = molecular target: Dihydroorotate dehydrogenase (quinone), mitochondrial (Rattus norvegicus, UniProt Q63707); experiment: Inhibition of rat purified recombinant DHODH
[5] = molecular target: T2, Dihydroorotate dehydrogenase (quinone), mitochondrial (Homo sapiens, UniProt Q02127); experiment: Inhibition of human purified recombinant DHODH
[6] = molecular target: Dihydroorotate dehydrogenase (quinone), mitochondrial (Rattus norvegicus) (UniProt Q63707); experiment: Competitive inhibition of rat purified recombinant DHODH in presence of cofactor ubiquinone
[7] = molecular target: T2, Dihydroorotate dehydrogenase (quinone), mitochondrial; experiment: Competitive inhibition of human purified recombinant DHODH in presence of cofactor ubiquinone

T2 sequence (Q02127 whole entry): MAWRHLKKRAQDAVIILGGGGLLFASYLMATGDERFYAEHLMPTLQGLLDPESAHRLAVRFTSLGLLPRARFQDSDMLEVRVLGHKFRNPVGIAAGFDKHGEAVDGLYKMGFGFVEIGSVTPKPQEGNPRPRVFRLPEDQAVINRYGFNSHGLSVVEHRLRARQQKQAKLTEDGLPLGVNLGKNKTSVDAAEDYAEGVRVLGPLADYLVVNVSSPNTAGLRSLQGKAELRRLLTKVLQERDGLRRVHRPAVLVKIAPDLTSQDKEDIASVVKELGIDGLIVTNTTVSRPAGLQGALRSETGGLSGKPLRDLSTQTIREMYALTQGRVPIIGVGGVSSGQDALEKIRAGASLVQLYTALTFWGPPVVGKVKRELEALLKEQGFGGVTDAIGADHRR
Sequence of Voltage-gated inwardly rectifying potassium channel KCNH2 (Q12809 whole entry): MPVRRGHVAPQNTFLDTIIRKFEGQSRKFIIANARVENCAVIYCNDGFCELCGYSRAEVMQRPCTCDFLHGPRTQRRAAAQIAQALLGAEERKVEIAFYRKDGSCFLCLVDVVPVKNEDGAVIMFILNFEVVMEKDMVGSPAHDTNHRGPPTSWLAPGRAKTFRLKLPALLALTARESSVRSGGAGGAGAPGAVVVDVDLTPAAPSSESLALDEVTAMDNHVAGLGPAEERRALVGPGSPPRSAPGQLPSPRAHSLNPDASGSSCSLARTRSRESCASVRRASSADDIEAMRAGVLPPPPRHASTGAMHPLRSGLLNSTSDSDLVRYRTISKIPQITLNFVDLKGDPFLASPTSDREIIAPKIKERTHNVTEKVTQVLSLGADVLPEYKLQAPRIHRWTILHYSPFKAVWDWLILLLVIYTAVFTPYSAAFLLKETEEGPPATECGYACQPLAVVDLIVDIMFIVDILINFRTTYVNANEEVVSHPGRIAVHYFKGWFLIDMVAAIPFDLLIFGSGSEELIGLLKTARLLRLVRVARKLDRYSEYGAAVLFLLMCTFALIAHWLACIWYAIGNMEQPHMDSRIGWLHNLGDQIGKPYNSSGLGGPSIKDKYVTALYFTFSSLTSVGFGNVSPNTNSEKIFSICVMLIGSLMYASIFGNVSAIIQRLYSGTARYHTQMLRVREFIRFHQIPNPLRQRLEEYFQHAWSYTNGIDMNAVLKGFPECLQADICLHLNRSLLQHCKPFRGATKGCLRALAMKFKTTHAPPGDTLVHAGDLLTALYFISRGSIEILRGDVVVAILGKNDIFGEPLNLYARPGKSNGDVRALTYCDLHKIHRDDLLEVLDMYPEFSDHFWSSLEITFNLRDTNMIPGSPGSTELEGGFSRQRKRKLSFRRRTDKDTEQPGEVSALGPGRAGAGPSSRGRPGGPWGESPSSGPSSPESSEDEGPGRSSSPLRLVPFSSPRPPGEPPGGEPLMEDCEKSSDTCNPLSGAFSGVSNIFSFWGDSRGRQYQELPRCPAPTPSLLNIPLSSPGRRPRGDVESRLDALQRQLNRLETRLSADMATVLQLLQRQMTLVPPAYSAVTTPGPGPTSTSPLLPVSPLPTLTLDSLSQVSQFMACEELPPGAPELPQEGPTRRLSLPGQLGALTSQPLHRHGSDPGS
Sequence of Dihydroorotate dehydrogenase (quinone), mitochondrial (Rattus norvegicus, UniProt Q63707) (Q63707 whole entry): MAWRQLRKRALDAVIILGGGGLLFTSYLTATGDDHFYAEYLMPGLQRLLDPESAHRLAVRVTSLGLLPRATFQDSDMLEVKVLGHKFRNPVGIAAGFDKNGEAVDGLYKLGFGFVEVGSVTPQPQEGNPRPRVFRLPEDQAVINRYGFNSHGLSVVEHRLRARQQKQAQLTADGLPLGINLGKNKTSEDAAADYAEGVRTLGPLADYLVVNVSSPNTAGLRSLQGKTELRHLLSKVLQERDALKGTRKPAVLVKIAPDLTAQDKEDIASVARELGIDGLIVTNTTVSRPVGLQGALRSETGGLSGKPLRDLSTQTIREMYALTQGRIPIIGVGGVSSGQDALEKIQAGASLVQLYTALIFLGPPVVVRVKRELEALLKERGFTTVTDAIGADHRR
Sequence of Dihydroorotate dehydrogenase (quinone), mitochondrial (Rattus norvegicus) (Q63707 whole entry): as above

## Cc1nc2cc(OC(F)(F)F)ccc2n1-c1ccc(C(=O)NC2CC2)s1
[1]
  IC50: < 2.8 µM

## Cc1cc(NC(=O)/C(C#N)=C(\O)C2CC2)ccc1C(F)(F)F
[2]
  half-life: 3.5 h

## O=C1C(O)=C([C@H]2CC[C@H](c3ccc(Cl)cc3)CC2)C(=O)c2ccccc21 [ATOVAQUONE]
[3]
  Ki: 27 µM
[4]
  IC50: 0.7 µM
[5]
  IC50: 14.5 µM
[6]
  Kic: 60 nM
[7]
  Kic: 2.7 µM

## C/C(O)=C(\C#N)C(=O)Nc1ccc(C(F)(F)F)cc1 [TERIFLUNOMIDE]
[2]
  half-life: > 336 h

Source: ChEMBL document CHEMBL2331175, “On dihydroorotate dehydrogenases and their inhibitors and uses” (J Med Chem, 2013)
